According to patent publication US6521446B2, “Biosensor” (Duke University, priority 1997, dated 2003):
pKd: −log10 of the molar value.

What was measured:
[1] = Glucose binding, titration followed by fluorescence change of the conjugated fluorophore
Method: (§1) Measurement of Glucose and Galactose Binding. Sugar binding was determined by measuring changes in fluorescence of the conjugated fluorophores on a SLM-Aminco-Bowman series-2 fluorimeter at 25±1° C. Glucose or galactose (Sigma) was titrated into a 50 nM conjugated protein solution in 0.1 M NaCl, 50 mM phosphate (pH 7.0), which was continuously mixed with a magnetic stirrer. For titrations, the excitation and emission slit widths were set to 4 and 16 nm, respectively (IANBD:λex=469 nm, λcm=540 nm; acrylodan: λex=392 nm, λem=520 nm). Under these conditions the instrument noise was <1% of the fluorescence signal observed in saturating solutions of glucose. Experimentally observed binding curves were fit to a binding isotherm:
(§2) where ΔF is the change in fluorescence, ΔFmax the fluorescence change at saturating concentrations of ligand, Kd the binding constant, and S the concentration of ligand.

[2] = Sugar binding Kd of mutant proteins: L-Arabinose; conditions: Table 2, binding-site mutants
Method: as §1, with “Glucose or galactose (Sigma) was titrated into a 50 nM conjugated protein solution in 0.1 M NaCl, 50 mM phosphate (pH 7.0), which was continuously mixed with a magnetic stirrer.” left out
as §2
(§3) (Primary binding surface in E. coli GBP: Asn14, Asn91, His152, Asp154, Arg158, Asn211, Asp236, Asn256; secondary binding surface in E coli GBP: Tyr10, Phe16, Met17, Asn66, Ser112, Ser115, Trp183, Asn210, Met214, Gln261, Tyr295). In order to change the binding constant for glucose, residues in both surfaces have been systematically mutated, either singly or in pairs. The Asp154Ala, Trp183Ala (D154A+W183A) double mutant has a binding constant of 7.2 mM. The dynamic range is thus matched for operating in physiologically relevant glucose concentration ranges.

[3] = Sugar binding Kd of mutant proteins: D-Mannose; conditions: Table 2, binding-site mutants
Method: as §1, with “Glucose or galactose (Sigma) was titrated into a 50 nM conjugated protein solution in 0.1 M NaCl, 50 mM phosphate (pH 7.0), which was continuously mixed with a magnetic stirrer.” left out
as §2, §3

[4] = Galactose binding, titration followed by fluorescence change of the conjugated fluorophore
Method: as §1, §2

[5] = Sugar binding Kd of mutant proteins: D-Fructose; conditions: Table 2, binding-site mutants
Method: as §1, with “Glucose or galactose (Sigma) was titrated into a 50 nM conjugated protein solution in 0.1 M NaCl, 50 mM phosphate (pH 7.0), which was continuously mixed with a magnetic stirrer.” left out
as §2, §3

[6] = Sugar binding Kd of mutant proteins: D-Fucose; conditions: Table 2, binding-site mutants
Method: as §1, with “Glucose or galactose (Sigma) was titrated into a 50 nM conjugated protein solution in 0.1 M NaCl, 50 mM phosphate (pH 7.0), which was continuously mixed with a magnetic stirrer.” left out
as §2, §3

[7] = Fluorescence of glucose-saturated GBP conjugate relative to apoprotein; format: binding
Method: as §1, with “isotherm: […]” for “isotherm:”

[8] = Sugar binding Kd of mutant proteins: Maltose; conditions: Table 2, binding-site mutants
Method: as §1, with “Glucose or galactose (Sigma) was titrated into a 50 nM conjugated protein solution in 0.1 M NaCl, 50 mM phosphate (pH 7.0), which was continuously mixed with a magnetic stirrer.” left out
as §2, §3

[9] = Sugar binding Kd of mutant proteins: D-Xylose; conditions: Table 2, binding-site mutants
Method: as §1, with “Glucose or galactose (Sigma) was titrated into a 50 nM conjugated protein solution in 0.1 M NaCl, 50 mM phosphate (pH 7.0), which was continuously mixed with a magnetic stirrer.” left out
as §2, §3

[10] = Sugar binding Kd of mutant proteins: Lactose; conditions: Table 2, binding-site mutants
Method: as §1, with “Glucose or galactose (Sigma) was titrated into a 50 nM conjugated protein solution in 0.1 M NaCl, 50 mM phosphate (pH 7.0), which was continuously mixed with a magnetic stirrer.” left out
as §2, §3

[11] = Table 2, binding-site mutants, read-out: Kd, D-Glucose
[12] = Table 2, binding-site mutants, read-out: Kd, D-Galactose
[13] = IANBD conjugate, read-out: Kd(Glc)
[14] = acrylodan conjugate, read-out: Kd(Glc)
[15] = IANBD conjugate, read-out: Kd(Gal)
[16] = acrylodan conjugate, read-out: Kd(Gal)
[17] = IANBD conjugate, relative to wild-type
[18] = mutants in the allosterically signaling construct 255C, read-out: binding constant for glucose

Substance: D14A: E. coli GBP binding-site mutant at position 14
- pKd [1, 11]: 3.54
- pKd [2]: 2.14
- pKd [3]: 1.59
- pKd [4, 12]: 3.41

Substance: D154A W183A: E. coli GBP double mutant in a 255C background
- pKd ([1]; 255C background, read-out: binding constant): 2.14
- pKd [1, 11]: 2.14
- pKd ([1]; glucose, read-out: binding constant): 2.14

Substance: D154A: E. coli GBP binding-site mutant
- pKd [1, 11]: 4.94
- pKd [2]: 2.66
- pKd [3]: 2.81
- pKd [4, 12]: 4.39
- pKd [5]: 1.62
- pKd [6]: 3.85

Substance: D257C: E. coli GBP single cysteine mutant in the hinge region, fluorophore conjugated
- pKd [1, 13]: 6.10
- pKd [1, 14]: 6.30
- pKd [4, 15]: 5.82
- pKd [4, 16]: 6.30
- R: ratio of fluorescence of fully saturated GBP (10 mM glucose) to apoprotein ([7]; IANBD conjugate): 1.6
- R: ratio of fluorescence of fully saturated GBP (10 mM glucose) to apoprotein ([7]; acrylodan conjugate): 0.8

Substance: F16Y: E. coli GBP binding-site mutant
- pKd [1, 11]: 3.30
- pKd [4, 12]: 2.93
- pKd [6]: 2.22

Substance: H152C: E. coli GBP single cysteine mutant in the binding pocket, nonallosteric reporter site, conjugated to IANBD or acrylodan
- increase in the binding constant for glucose [1, 17]: ~100 fold
- pKd [1, 13]: 4.70
- increase in the binding constant for galactose [4, 17]: ~500 fold
- pKd [4, 15]: 3.80
- increase in fluorescence ([7]; IANBD conjugate): 4 fold
- R: ratio of fluorescence of fully saturated GBP (10 mM glucose) to apoprotein ([7]; IANBD conjugate): 4.0
- R: ratio of fluorescence of fully saturated GBP (10 mM glucose) to apoprotein ([7]; acrylodan conjugate): 1.0

Substance: L255C: E. coli GBP single cysteine mutant in the hinge region of the allosteric flap; allosterically signaling construct 255C
- pKd [1, 13]: 6.49
- pKd [1, 14]: 6.37
- pKd [1, 18]: 6.70
- pKd [4, 15]: 6.31
- pKd [4, 16]: 6.21
- R: ratio of fluorescence of fully saturated GBP (10 mM glucose) to apoprotein ([7]; IANBD conjugate): 0.8
- R: ratio of fluorescence of fully saturated GBP (10 mM glucose) to apoprotein ([7]; acrylodan conjugate): 0.5

Substance: N15C: E. coli GBP single cysteine mutant in the binding pocket, nonallosteric reporter site, conjugated to IANBD or acrylodan
- pKd [1, 13]: 6.89
- effect on the sugar binding constants ([1]; acrylodan and IANBD conjugates at the 15 position): do not greatly perturb the sugar binding constants
- pKd [1, 14]: 6.77
- pKd [4, 15]: 7.00
- pKd [4, 16]: 6.82
- R: ratio of fluorescence of fully saturated GBP (10 mM glucose) to apoprotein ([7]; IANBD conjugate): 0.8
- R: ratio of fluorescence of fully saturated GBP (10 mM glucose) to apoprotein ([7]; acrylodan conjugate): 0.7

Substance: N91A: E. coli GBP binding-site mutant
- pKd [1, 11]: 3.82
- pKd [3]: 1.80
- pKd [4, 12]: 2.97
- pKd [6]: 2.91

Substance: P294C: E. coli GBP single cysteine mutant in the hinge region, fluorophore conjugated
- pKd [1, 14]: 6.00
- pKd [4, 16]: 6.00
- R: ratio of fluorescence of fully saturated GBP (10 mM glucose) to apoprotein ([7]; IANBD conjugate): 1.0
- R: ratio of fluorescence of fully saturated GBP (10 mM glucose) to apoprotein ([7]; acrylodan conjugate): 0.9

Substance: S112A S115A: E. coli GBP binding-site double mutant
- pKd [1, 11]: 5.05
- pKd [2]: 2.96
- pKd [3]: 2.85
- pKd [4, 12]: 4.48
- pKd [8]: 2.48

Substance: S112A: E. coli GBP binding-site mutant
- pKd [1, 11]: 5.14
- pKd [2]: 3.06
- pKd [3]: 3.17
- pKd [9]: 2.38
- pKd [4, 12]: 4.61
- pKd [5]: 1.82

Substance: V296C: E. coli GBP single cysteine mutant in the hinge region, fluorophore conjugated
- pKd [1, 13]: 7.00
- pKd [4, 15]: 6.52
- R: ratio of fluorescence of fully saturated GBP (10 mM glucose) to apoprotein ([7]; IANBD conjugate): 0.7
- R: ratio of fluorescence of fully saturated GBP (10 mM glucose) to apoprotein ([7]; acrylodan conjugate): 1.0

Substance: W183A: GBP single mutant constructed in the allosterically signaling construct 255C
- pKd [1, 18]: 4.70

Substance: W183AY10A: GBP double mutant constructed in the allosterically signaling construct 255C
- pKd [1, 18]: 3.19

Substance: Wild-type: wild type E. coli Glucose/Galactose Binding Protein (GBP) [reference compound]
- pKd ([1]; wild type GBP, read-out: Kd (glucose)): 6.10
- pKd [2]: 4.05
- pKd [3]: 3.98
- pKd [9]: 2.85
- pKd [10]: 2.89
- pKd [4, 12]: 5.62
- pKd [5]: 2.33
- pKd [6]: 3.47
- pKd [8]: 3.40

Substance: Y10A D154A: E. coli GBP binding-site double mutant
- pKd [1, 11]: 2.98
- pKd [4, 12]: 2.36

Substance: Y10A: E. coli GBP binding-site mutant, constructed in the 255C construct
- pKd [1, 11]: 4.27
- pKd [1, 18]: 4.30
- pKd [2]: 2.57
- pKd [3]: 2.15
- pKd [4, 12]: 3.74
- pKd [5]: 1.66

Substance: acrylodan conjugate at position 255: acrylodan conjugate of the L255C GBP mutant, best allosteric signal transducer in the hinge region
- decrease in fluorescence upon ligand binding ([7]; acrylodan conjugate): 2 fold
